Assay results published in PMC8586708, “SC75741, A Novel c-Abl Inhibitor, Promotes the Clearance of TDP25 Aggregates via ATG5-Dependent Autophagy Pathway” (Frontiers in Pharmacology, 2021).

Target: T1, c-Abl (Homo sapiens, UniProt P00519)
T1 construct: gene ABL1
Assay: in vitro kinase assay, dose-response
Format: biochemical

T1 sequence (P00519 whole entry): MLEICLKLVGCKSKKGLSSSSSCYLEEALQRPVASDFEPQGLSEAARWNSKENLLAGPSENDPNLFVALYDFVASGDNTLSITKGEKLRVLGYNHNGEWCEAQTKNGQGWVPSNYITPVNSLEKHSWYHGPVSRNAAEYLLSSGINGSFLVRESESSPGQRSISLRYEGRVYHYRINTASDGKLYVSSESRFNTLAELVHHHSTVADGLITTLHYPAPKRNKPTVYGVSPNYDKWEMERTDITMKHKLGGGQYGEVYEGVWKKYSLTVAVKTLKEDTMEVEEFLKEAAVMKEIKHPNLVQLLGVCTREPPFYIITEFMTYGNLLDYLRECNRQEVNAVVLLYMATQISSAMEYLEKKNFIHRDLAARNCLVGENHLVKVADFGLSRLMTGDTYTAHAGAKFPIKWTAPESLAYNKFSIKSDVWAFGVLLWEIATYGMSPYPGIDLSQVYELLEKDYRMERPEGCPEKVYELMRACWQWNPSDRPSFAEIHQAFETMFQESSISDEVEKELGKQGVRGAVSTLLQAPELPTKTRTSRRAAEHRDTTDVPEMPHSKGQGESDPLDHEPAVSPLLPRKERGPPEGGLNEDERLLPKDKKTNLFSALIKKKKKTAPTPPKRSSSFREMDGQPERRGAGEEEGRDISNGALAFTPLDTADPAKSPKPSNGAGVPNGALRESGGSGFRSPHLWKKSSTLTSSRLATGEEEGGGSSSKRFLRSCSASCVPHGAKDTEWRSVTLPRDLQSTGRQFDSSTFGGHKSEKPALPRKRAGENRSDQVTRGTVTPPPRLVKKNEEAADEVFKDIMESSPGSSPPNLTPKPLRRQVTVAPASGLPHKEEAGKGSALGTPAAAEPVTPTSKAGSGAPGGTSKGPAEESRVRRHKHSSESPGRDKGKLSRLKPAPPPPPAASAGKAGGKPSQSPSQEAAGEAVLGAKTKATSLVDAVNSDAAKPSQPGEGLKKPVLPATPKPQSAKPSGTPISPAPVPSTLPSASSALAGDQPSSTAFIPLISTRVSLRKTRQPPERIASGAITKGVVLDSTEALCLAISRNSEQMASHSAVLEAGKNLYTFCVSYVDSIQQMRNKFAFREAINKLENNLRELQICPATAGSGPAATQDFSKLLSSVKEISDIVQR

IC50: 263 nM
SMILES: O=C(c1ccccc1)c1ccc2nc(NC(=O)c3csc(C4CCN(c5ncnc6ccsc56)CC4)n3)[nH]c2c1 [SC75741]
